The values that follow come from paper PMC9446799, “Preparation of a camptothecin analog FLQY2 self-micelle solid dispersion with improved solubility and bioavailability” (Journal of Nanobiotechnology, 2022).

Series [1] relates to HCT 116 and Hep G2 cell lines. Details: method as in PMID 31309350. The settings on record: cited from earlier work.
Series [2] in a line: Inhibition of crystallization (solvent-shift method). It is filed as physicochemical. To be noted: for saturated concentration of FLQY2: in Soluplus aqueous solution (2 mg/mL), 37 °C. How it is done: Inhibition of crystallization was studied using the solvent-shift method. 3 mL FLQY2 DMSO solution (1 mg/mL) was mixed respectively with six different 30 mL aqueous solution including six carriers (2 mg/mL) and stirred at 120 r/min under 37 °C. 0.5 mL solution was collected at 0.0833, 0.5, 1, 2, 4, 6, 8 h, filtered through 0.22 μm filters, and determined the dissolved FLQY2 by HPLC.

A further series deals with P-gp. To be noted: cited from earlier work.
Series [3] concerns HCT 116 and MIA PaCa-2 cells. Put plainly: MTT cytotoxicity assay. The format is cell-based, Human. As for the experimental part:
(§1) The sample preparation: FLQY2 was dissolved in DMSO as a stock solution, and the stock solution was diluted by DMEM medium as a working solution. FLQY2-SD/ FLQY2-PM powder was dissolved in water, then the FLQY2-SD/FLQY2-PM solution was diluted by DMEM medium.
(§2) The cells were cultured in McCoy’s 5A medium for HCT 116 or DMEM medium for MIA PaCa-2 cells. All mediums contained 10% FBS and 1% penicillin–streptomycin solution. The cytotoxicity of FLQY2/FLQY2-SD was measured against these cells using an MTT assay. Briefly, 1 × 10^4 cells per well were seeded into 96 well plates for 24 h. Different concentrations of FLQY2 /FLQY2-SD solution and blank fresh medium were added to the plates and then incubated for 72 h. After adding MTT solution (5 mg/mL) for 4 h, 150 μL of DMSO was added to dissolve the formazan crystals. Absorbance at 570 nm with the control wavelength of 630 nm was used in infinite M200 pro (Tecan, Switzerland). Cell viability was expressed as a percentage relative to the blank control.

A further series can be described thus: MTT cytotoxicity assay. It is filed as cell-based, Human. The settings on record: human. How it is done: as §1, §2
In general terms: Tetrazolium dyes change colour on reduction, which living cells bring about.

Another series relates to HT-29 tumor. Kind of series: Anticancer activity in vivo in HT-29 tumor-bearing mice. Also on record: species or system BALB/c mice. The settings on record: 100 mpk, i.p./QW, day 28. As for the experimental part: 0.1 mL suspension of HT-29 cells were inoculated in female BALB/c mice at a density of 2 × 10^7/mL. After the tumors grew to 100–200 mm^3 (the day recorded as D0), the mice were randomly grouped and administered with Irinotecan hydrochloride (100 mpk, i.p./QW) (n = 6), Paclitaxel-albumin (15 mpk, i.v./Q4D) (n = 6), FLQY2-SD (1.5 mpk, p.o./QW) (n = 6), FLQY2-SD (1 mpk, p.o./QW) (n = 6), and saline as a blank control (n = 12). The tumor volume and body weight of the mice were recorded every 2 days. On day 28, the mice were sacrificed, and the tumors were surgically removed and weighed. Some parameters were calculated as follows.
tumor volume (TV): TV=1/2×ab^2
relative tumor volume (RTV): RTV=Vt/V0
tumor growth inhibition (TGI): TGI=(1-VT28-VT0/VC28-VC0)×100%
Where a and b are the length and width of the tumors; V0 and Vt are the tumor volume measured at D0 and at each measurement time Dt; VT28 and VT0 are the mean tumor volume in the treatment group at D28 and D0; VC28 and VC0 are the mean tumor volume in the negative control group at D28 and D0.

Series [4] in a line: Identification of metabolites in plasma, urine and feces (UPLC-TripleTOF). The settings on record: ESI−, [M-H]-; F, U, P not defined in the table (feces, urine, plasma samples analysed).
Protocol: The plasma, urine, and feces samples were processed as described above without IS, and the remaining volumes were made up of the precipitant. Chromatographic analysis was performed on an UltiMate 30 (Thermo Fisher Scientific, San Jose, CA, USA). Separation was carried out on an ACQUITY UPLC HSS T3 (1.8 μm, 2.1 × 100 mm) at 40 °C, 2 µL injection volume. In the positive ion mode, the mobile phase consisted of water containing 0.1% formic acid (A) and acetonitrile containing 0.1% formic acid (B). The gradient elution was performed with 5% B for 1.5 min, increasing to 10% B at 2.5 min, then ramping to 40% B at 14 min, rising to 95% B at 22 min, and remaining at 95% B until 25 min, and finally, the column was reconditioned with 5% B for 5 min. The mobile phase consisted of water containing 2 mM ammonium acetate (A) and acetonitrile (B) in the negative ion mode. The gradient elution was the same as in the positive ion mode.
Mass spectrometric analysis was acquired by Peakview 2.2 and MetabolitePilot 2.0.4 software using a quadrupole time-of-flight mass spectrometry (TripleTOF™ 5600, AB Sciex Corporation., Foster City, CA) with MS scans and information dependent acquisition (IDA) MS/MS scans. The mass spectrometer was operated in both positive and negative ion mode with electrospray ionization (ESI) source at 650 ℃. […]

Where a name gives a salt, the structure may show the parent alone.

The term efflux ratio denotes the permeability from basolateral to apical divided by that in the opposite direction, in the common usage. As usually defined, the viability is a per cent measure of how many cells are alive, often set against a control. High values mean better survival, low ones a greater loss of cells. In the case of `CC[C@@]1(O)C(=O)OCc2c1cc1n(c2=O)Cc2c-1nc1cc3c(cc1c2-c1ccc(C(F)(F)F)cc1)OCO3` [FLQY2, 7-p-trifluoromethylphenyl-FL118], the IC50 result in series [1] was “nM level”. Besides, the “saturated concentration of FLQY2” value was 51.60 µg/mL in series [2] (at 5 min) and 48.76 µg/mL in series [2] (at 8 h). For the same molecule, the crystallization inhibition outcome in series [2] (mixture including PEG4000, PEG6000, PVP Va64, HS 15 and P407 (2 mg/mL)) was “crystallization and precipitation”. In addition, the efflux ratio in the series with P-gp is reported as < 2. In addition, the cytotoxicity entry in series [3] is “dose-dependent toxicity”. In “MTT cytotoxicity assay”, the viability at 2 h, 1 µM was > 92.5%.

As a reminder, the TGI is how far tumour growth fell short of that in controls. Low values mean a weaker effect on the tumour, high ones a stronger effect on the tumour. `CCc1c2c(nc3ccc(OC(=O)N4CCC(N5CCCCC5)CC4)cc13)-c1cc3c(c(=O)n1C2)COC(=O)[C@]3(O)CC` [Irinotecan hydrochloride]: the TGI in the series on HT-29 tumor is on record as 66.5%.

Consider `C=c1c(=O)n2c(c/c1=C(/O)CC)-c1nc3cc4c(cc3c(-c3ccc(C(F)(F)F)cc3)c1C2)OCO4` [M1], for which the “Source (biological sample in which detected)” value in series [4] is “F, U, P”.

Turning to `CC[C@@]1(O)OCc2c1cc1n(c2=O)Cc2c-1nc1cc3c(cc1c2-c1ccc(C(F)(F)F)cc1)OCO3` [M3], the “Source (biological sample in which detected)” value in series [4] is “F, U, P”.

Turning to “Polyvinyl caprolactam-polyvinyl acetate-polyethylene glycol graft copolymer [Soluplus®]”, in series [3], the cell viability result is “exceeded 91.0 ± 3.8%”.
